The record followed here is US6426413B1, “Inhibitors of caspases” (Vertex Pharmaceuticals Incorporated, priority 1998, dated 2002).

The target in experiment [1] is T1, ICE Caspase-1 (Homo sapiens, UniProt P29466).
T1 sequence (P29466 120-297 limits assumed): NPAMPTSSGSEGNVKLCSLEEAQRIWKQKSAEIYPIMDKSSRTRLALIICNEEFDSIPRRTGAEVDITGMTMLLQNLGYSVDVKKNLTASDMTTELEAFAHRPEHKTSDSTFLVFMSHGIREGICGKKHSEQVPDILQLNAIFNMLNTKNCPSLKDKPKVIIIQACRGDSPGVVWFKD
T1 sequence (P29466 317-404 limits assumed): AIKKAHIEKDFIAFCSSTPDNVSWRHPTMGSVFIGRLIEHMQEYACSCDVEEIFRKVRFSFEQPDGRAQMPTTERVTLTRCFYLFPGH
Description: ICE (Caspase-1) enzyme inhibition assay, Ki. The format is biochemical. To be noted: in vitro enzyme assay. How it is done: This assay is run using an Succinyl-Tyr-Val-Ala-Asp-p-Nitroanilide substrate. Synthesis of analogous substrates is described by L. A. Reiter (Int. J. Peptide Protein Res., 43, pp. 87-96 (1994)). The assay mixture contains:
The visible ICE assay is run in a 96-well microtiter plate. Buffer, ICE and DMSO (if inhibitor is present) are added to the wells in the order listed. The components are left to incubate at room temperature for 15 minutes starting at the time that all components are present in all wells. The microtiter plate reader is set to incubate at 37° C. After the 15 minute incubation, substrate is added directly to the wells and the reaction is monitored by following the release of the chromophore (pNA) at 405-603 nm at 37° C. for 20 minutes. A linear fit of the data is performed and the rate is calculated in mOD/min. DMSO is only present during experiments involving inhibitors, buffer is used to make up the volume to 100 μl in the other experiments.
This assay is run essentially according to Thornberry et al., Nature, 356 pp. 768-774 (1992), using substrate 17 referenced in that article. The substrate is: Acetyl-Tyr-Val-Ala-Asp-amino-4-methylcoumarin (AMC). The following components are mixed:
The assay is run in a 96-well microtiter plate. Buffer and ICE are added to the wells. The components are left to incubate at 37° C. for 15 minutes in a temperature-controlled wellplate. After the 15 minute incubation, the reaction is started by adding substrate directly to the wells and the reaction is monitored at 37° C. for 30 minutes by following the release of the AMC fluorophore using an excitation wavelength for 380 nm and an emission wavelength of 460 nm. A linear fit of the data for each well is performed and a rate is determined in fluorescence units per second.
(§1) For determination of enzyme inhibition constants (Ki) or the mode of inhibition (competitive, uncompetitive or noncompetitive), the rate data determined in the enzyme assays at varying inhibitor concentrations are computer-fit to standard enzyme kinetic equations (see I. H. Segel, Enzyme Kinetics, Wiley-Interscience, 1975).

Experiment [2] concerns Human Peripheral Blood Mononuclear Cells (PBMC). Kind of experiment: PBMC cell assay: IL-1β assay with LPS-stimulated human PBMC. In kind it is cell-based. To be noted: mature IL-1β in supernatant, LPS 5 ng/ml, 16-18 hr. The text has this:
IL-1β Assay with a Mixed Population of Human Peripheral Blood Mononuclear Cells (PBMC) or Enriched Adherent Mononuclear Cells
Processing of pre-IL-1β by ICE can be measured in cell culture using a variety of cell sources. Human PBMC obtained from healthy donors provides a mixed population of lymphocyte subtypes and mononuclear cells that produce a spectrum of interleukins and cytokines in response to many classes of physiological stimulators. Adherent mononuclear cells from PBMC provides an enriched source of normal monocytes for selective studies of cytokine production by activated cells.
An initial dilution series of test compound in DMSO or ethanol is prepared, with a subsequent dilution into RPMI-10% FBS media (containing 2 mM L-glutamine, 10 mM HEPES, 50 U and 50 μg/ml pen/strep) respectively to yield drugs at 4×the final test concentration containing 0.4% DMSO or 0.4% ethanol. The final concentration of DMSO is 0.1% for all drug dilutions. A concentration titration which brackets the apparent Ki for a test compound determined in an ICE inhibition assay is generally used for the primary compound screen.
Generally 5-6 compound dilutions are tested and the cellular component of the assay is performed in duplicate, with duplicate ELISA determinations on each cell culture supernatant.
Buffy coat cells isolated from one pint human blood (yielding 40-45 ml final volume plasma plus cells) are diluted with media to 80 ml and LeukoPREP separation tubes (Becton Dickinson) are each overlaid with 10 ml of cell suspension. After 15 min centrifugation at 1500-1800×g, the plasma/media layer is aspirated and then the mononuclear cell layer is collected with a Pasteur pipette and transferred to a 15 ml conical centrifuge tube (Corning). Media is added to bring the volume to 15 ml, gently mix the cells by inversion and centrifuge at 300×g for 15 min. The PBMC pellet is resuspended in a small volume of media, the cells are counted and adjusted to 6×10^6 cells/ml.
For the cellular assay, 1.0 ml of the cell suspension is added to each well of a 24-well flat bottom tissue culture plate (Corning), 0.5 ml test compound dilution and 0.5 ml LPS solution (Sigma #L-3012; 20 ng/ml solution prepared in complete RPMI media; final LPS concentration 5 ng/ml). The 0.5 ml additions of test compound and LPS are usually sufficient to mix the contents of the wells. Three control mixtures are run per experiment, with either LPS alone, solvent vehicle control, and/or additional media to adjust the final culture volume to 2.0 ml. The cell cultures are incubated for 16-18 hr at 37° C. in the presence of 5% CO2.
At the end of the incubation period, cells are harvested and transferred to 15 ml conical centrifuge tubes. After centrifugation for 10 min at 200×g, supernatants are harvested and transferred to 1.5 ml Eppendorf tubes. It may be noted that the cell pellet may be utilized for a biochemical evaluation of pre-IL-1β and/or mature IL-1β content in cytosol extracts by Western blotting or ELISA with pre-IL-1β specific antisera.
PBMC are isolated and prepared as described above. Media (1.0 ml) is first added to wells followed by 0.5 ml of the PBMC suspension. After a one hour incubation, plates are gently shaken and nonadherent cells aspirated from each well. Wells are then gently washed three times with 1.0 ml of media and final resuspended in 1.0 ml media. The enrichment for adherent cells generally yields 2.5-3.0×10^5 cells per well. […]

Experiment [3] relates to Human whole blood. Kind of experiment: Whole blood assay for IL-1β production. In kind it is cell-based. To be noted: LPS 5.0 ng/ml, 16-18 hr at 30° C. On the procedure:
The whole blood assay is a simple method for measuring the production of IL-1β (or other cytokines) and the activity of potential inhibitors. The complexity of this assay system, with its full complement of lymphoid and inflammatory cell types, spectrum of plasma proteins and red blood cells is an ideal in vitro representation of human in vivo physiologic conditions.
Human whole blood sample (^˜30-50 cc) 1.5 ml Eppendorf tubes
Set incubator or water bath at 30°C. Aliquot 0.25 ml of blood into 1.5 ml Eppendorf tubes. Note: be Sure to invert the whole blood sample tubes after every two aliquots. Differences in replicates may result if is the cells sediment and are not uniformly suspended. Use of a positive displacement pipette will also minimize differences between replicate aliquots.
Prepare drug dilutions in sterile pyrogen-free saline by serial dilution. A dilution series which brackets the apparent Ki for a test compound determined in an ICE inhibition assay is generally used for the primary compound screen. For extremely hydrophobic compounds, prepare compound dilutions in fresh plasma obtained from the same blood donor or in PBS-containing 5% DMSO to enhance solubility.
Add 25 μl test compound dilution or vehicle control and gently mix the sample. Then add 5.0 μl LPS solution (250 ng/ml stocked prepared fresh: 5.0 ng/ml final concentration LPS), and mix again. Incubate the tubes at […] in a water bath for 16-18 hr with occasional mixing. Alternatively, the tubes can be placed in a rotator set at 4 rpm for the same incubation period. This assay should be set up in duplicate or triplicate with the following controls: negative control—no LPS; positive control—no test inhibitor; vehicle control—the highest concentration of DMSO or compound solvent used in the experiment. Additional saline is added to all control tubes to normalize volumes for both control and experimental whole blood test samples.
After the incubation period, whole blood samples are centrifuged for 10 minutes at ^˜2000 rpm in the microfuge, plasma is transferred to a fresh microfuge tube and centrifuged at 1000×g to pellet residual platelets if necessary. Plasma samples may be stored frozen at −70° C. prior to assay for cytokine levels by ELISA.
R & D Systems (6.14 McKinley Place N.E. Minneapolis, Minn. 55413) Quantikine kits may be used for measurement of IL-1β and TNF-α. The assays are performed according to the manufacturer's directions. IL-1β levels of ^˜1-5 ng/ml in positive controls among a range of individuals may be observed. A 1:200 dilution of plasma for all samples is usually sufficient for experiments for ELISA results to fall on the linear range of the ELISA standard curves. It may be necessary to optimize standard dilutions if you observe differences in the whole blood assay. Nerad, J. L. et al., J. Leukocyte Biol., 52, pp. 687-692 (1992).

For experiment [4], the target named is Flice Caspase-8 (Homo sapiens, UniProt Q14790). Description: Flice (Caspase-8) enzyme inhibition, Ki. In kind it is biochemical. To be noted: in vitro enzyme assay.
From the text: (§2) Other assays that may be used to evaluate the compounds of this invention are disclosed in PCT application PCT/US96/20843, published Jun. 26, 1997, under publication no. WO 97/22619, which is incorporated herein by reference. Such assays include in vivo bioavailability determinations, pharmacokinetic studies in the mouse, inhibition of ICE homologs, inhibition of apoptosis, in vivo acute assay for anti-inflammatory efficacy, measurement of blood levels, IGIF assays, mouse carrageenan peritoneal inflammation assay, and type II collagen-induced arthritis.
as §1

For experiment [5], the target named is T2, CPP32 Caspase-3 (Homo sapiens, UniProt P42574).
T2 sequence (P42574 29-175 limits assumed): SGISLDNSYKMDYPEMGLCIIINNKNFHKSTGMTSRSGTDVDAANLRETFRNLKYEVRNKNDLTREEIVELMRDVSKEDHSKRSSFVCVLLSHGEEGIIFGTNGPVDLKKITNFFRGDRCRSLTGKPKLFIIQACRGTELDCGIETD
T2 sequence (P42574 176-277 limits assumed): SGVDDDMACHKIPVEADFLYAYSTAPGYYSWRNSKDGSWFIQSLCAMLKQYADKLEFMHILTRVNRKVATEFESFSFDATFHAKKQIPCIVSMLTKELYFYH
Description: CPP32 (Caspase-3) enzyme inhibition, Ki. The format is biochemical. To be noted: in vitro enzyme assay.
From the text: as §2, §1

pIC50, pKi: −log10 of the molar value.

Sequence of Flice Caspase-8 (Q14790 217-374 limits assumed): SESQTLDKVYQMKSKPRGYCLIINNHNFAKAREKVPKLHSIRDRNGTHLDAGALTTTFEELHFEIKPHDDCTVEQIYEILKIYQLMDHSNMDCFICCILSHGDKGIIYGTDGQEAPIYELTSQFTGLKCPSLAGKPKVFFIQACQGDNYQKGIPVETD
Sequence of Flice Caspase-8 (Q14790 385-479 limits assumed): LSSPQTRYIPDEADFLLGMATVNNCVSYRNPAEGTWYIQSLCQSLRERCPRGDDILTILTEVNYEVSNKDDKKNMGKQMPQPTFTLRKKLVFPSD

Broadly, the pKi is −log10 of the Ki, conventionally taken in molar units. Higher therefore signals a low Ki. The term pIC50 denotes the IC50 on a negative log10 scale, so that one unit is a factor of ten. Turning to `CC(C(=O)N[C@H](C=O)CC(=O)O)N1C(=O)[C@@H](NC(=O)c2cc(Cl)c(O)c(Cl)c2)CCC(=O)N1C` (mixture of isomers) [Compound 20, 3-{2-[6-(3,5-Dichloro-4-hydroxy-benzoylamino)-2-methyl-3,7-dioxo-[1,2]diazepan-1-yl]-propionylamino}-4-oxo-butyric acid], the pKi in experiment [1] was 9.05. Further, the pIC50 is 6.27 in experiment [2] and 6.08 in experiment [3].
In turn, `O=C[C@H](CC(=O)O)NC(=O)CN1C(=O)[C@@H](NC(=O)c2nccc3ccccc23)CCC(=O)N1Cc1ccccc1` [Compound 11a, 3-(2-{2-Benzyl-6-[(isoquinoline-1-carbonyl)-amino]-3,7-dioxo-[1,2]diazepan-1-yl}-acetylamino)-4-oxo-butyric acid] showed a negative logarithm of the Ki (pKi) in experiment [1] of 7.00. Besides, the negative logarithm of the IC50 (pIC50) is 5.85 in experiment [2] and 5.14 in experiment [3].
In turn, `CCCN1C(=O)CC[C@H](NC(=O)c2nccc3ccccc23)C(=O)N1CC(=O)N[C@H](C=O)CC(=O)O` [Compound 11b, 3-(2-(6-[(Isoquinoline-1-carbonyl)-amino]-3,7-dioxo-2-propyl-[1,2]diazepan-1-yl)-acetylamino)-4-oxo-butyric acid] gave a pKi in experiment [1] of 6.92. For the same compound, the negative logarithm of the IC50 (pIC50) in experiment [2] is 5.82; in experiment [3], 5.24.
As to `CCCN1C(=O)CC[C@H](NC(=O)c2cc(Cl)c(O)c(Cl)c2)C(=O)N1CC(=O)N[C@H](C=O)CC(=O)O` [Compound 11c, 3-{2-[6-(3,5-Dichloro-4-hydroxy-benzoylamino)-3,7-dioxo-2-propyl-[1,2]diazepan-1-yl]-acetylamino}-4-oxo-butyric acid], the negative-log Ki (pKi) was 7.80 in experiment [1], 5.82 in experiment [4] and 4.65 in experiment [5]. The negative logarithm of the IC50 (pIC50) is 6.38 in experiment [2] and 5.84 in experiment [3].
Regarding `CS(=O)(=O)N1CCC[C@H](NC(=O)c2cc(Cl)c(O)c(Cl)c2)C(=O)N1CC(=O)N[C@H](C=O)CC(=O)O` [Compound 27, 3-{2-[6-(3,5-Dichloro-4-hydroxy-benzoylamino)-2-methanesulfonyl-7-oxo-[1,2]diazepan-1-yl]-acetylamino}-4-oxo-butyric acid], the negative-log Ki (pKi) in experiment [1] was 7.77. The results for the negative-log IC50 (pIC50) in experiment [2] and in experiment [3] were 6.00 and 5.72, respectively.
